Laboratory results from US20080312164A1 (priority 2006, published 2008).

Columns and labels:
MCF7 cells [1] = assay: Calcein AM cytotoxicity assay, MCF7; type: cell-based; conditions: Homo sapiens; MCF7, Calcein AM, 72 h; read-out: IC50
Text: (§1) Five serial 1:2 dilutions were made with anhydrous DMSO at 100× the final concentration used in the assay.

SK-OV-3 cells [2] = assay: Cell Titer-Glo cytotoxicity assay, SK-OV-3; type: cell-based; conditions: Homo sapiens; SK-OV-3, Cell Titer-Glo, 72 h; read-out: IC50
Text: as §1

HCT-116 cells [3] = assay: Calcein AM cytotoxicity assay, HCT-116; type: cell-based; conditions: Homo sapiens; HCT-116, Calcein AM, 72 h; read-out: IC50
Text: as §1

SK-OV-3 cells [4] = assay: Calcein AM cytotoxicity assay, SK-OV-3; type: cell-based; conditions: Homo sapiens; SK-OV-3, Calcein AM, 72 h; read-out: IC50
Text: as §1

NCI-H460 cells [5] = assay: Cell Titer-Glo cytotoxicity assay, NCI-H460; type: cell-based, human; conditions: Homo sapiens; NCI-H460, Cell Titer-Glo, 72 h; read-out: IC50
Text: as §1

Hep3B cells [6] = assay: Cell Titer-Glo cytotoxicity assay, Hep3B; type: cell-based; conditions: Homo sapiens, Cell Titer-Glo, 72 h, read-out: IC50
Text: as §1

NCI/ADR RES cells [7] = assay: Calcein AM cytotoxicity assay, NCI/ADR-RES; type: cell-based; conditions: Homo sapiens, Calcein AM, 72 h, read-out: IC50
Text: as §1

NCI-H460 cells [8] = assay: Calcein AM cytotoxicity assay, NCI-H460; type: cell-based; conditions: Homo sapiens; NCI-H460, Calcein AM, 72 h; read-out: IC50
Text: as §1

MCF7 cells [9] = assay: Cell Titer-Glo cytotoxicity assay, MCF7; type: cell-based, human; conditions: Homo sapiens; MCF7, Cell Titer-Glo, 72 h; read-out: IC50
Text: as §1

HCT-116 cells [10] = assay: Cell Titer-Glo cytotoxicity assay, HCT-116; type: cell-based; conditions: Homo sapiens; HCT-116, Cell Titer-Glo, 72 h; read-out: IC50
Text: as §1

Hep3B cells [11] = assay: Calcein AM cytotoxicity assay, Hep3B; type: cell-based; conditions: Homo sapiens, Calcein AM, 72 h, read-out: IC50
Text: as §1

Du145 cells [12] = assay: Cell Titer-Glo cytotoxicity assay, Du145; type: cell-based; conditions: Homo sapiens, DU-145; Du145, Cell Titer-Glo, 72 h; read-out: IC50
Text: as §1

[13] = test system: NmuMG mouse mammary normal epithelial cells; assay: Calcein AM cytotoxicity assay, NmuMG; type: cell-based; conditions: Epithelial cell, NmuMG, Calcein AM, 72 h, read-out: IC50
Text: as §1

HT-29 cells = assay: MTT cytotoxicity assay, HT-29; type: cell-based; conditions: Homo sapiens; HT-29, MTT, 24 h; read-out: IC50
SF-268 cells [14] = assay: Calcein AM cytotoxicity assay, SF-268; type: cell-based; conditions: Homo sapiens; SF-268, Calcein AM, 72 h; read-out: IC50
Text: as §1

SF-268 cells [15] = assay: Cell Titer-Glo cytotoxicity assay, SF-268; type: cell-based; conditions: Homo sapiens; SF-268, Cell Titer-Glo, 72 h; read-out: IC50
Text: as §1

Du145 cells [16] = assay: Calcein AM cytotoxicity assay, Du145; type: cell-based; conditions: Homo sapiens, DU-145; Du145, Calcein AM, 72 h; read-out: IC50
Text: as §1

[17] = test system: NmuMG mouse mammary normal epithelial cells; assay: Cell Titer-Glo cytotoxicity assay, NmuMG; type: cell-based; conditions: Mus musculus, Epithelial cell; NmuMG, Cell Titer-Glo, 72 h; read-out: IC50
Text: as §1

human cancer cell lines = assay: Cytotoxicity across the panel of human cancer cell lines (average, high-throughput assays); type: cell-based; conditions: for IC50: average across eight human cancer cell lines, MTT (HT-29) values excluded, read-out: Cancerous Average IC50 / Average IC50 in Cancer Cell Lines
Text: as §1

NCI/ADR RES cells [18] = assay: Cell Titer-Glo cytotoxicity assay, NCI/ADR-RES; type: cell-based, human; conditions: Homo sapiens; NCI/ADR-RES, Cell Titer-Glo, 72 h; read-out: IC50
Text: as §1

| Structure (SMILES) | IC50 (MCF7 cells [1]) [µM] | IC50 (SK-OV-3 cells [2]) [µM] | IC50 (HCT-116 cells [3]) [µM] | IC50 (SK-OV-3 cells [4]) [µM] | IC50 (NCI-H460 cells [5]) [µM] | IC50 (Hep3B cells [6]) [µM] | IC50 (NCI/ADR RES cells [7]) [µM] | IC50 (NCI-H460 cells [8]) [µM] | IC50 (MCF7 cells [9]) [µM] | IC50 (HCT-116 cells [10]) [µM] | IC50 (Hep3B cells [11]) [µM] | IC50 (Du145 cells [12]) [µM] | IC50 [13] [µM] | IC50 (HT-29 cells) [µM] | IC50 (SF-268 cells [14]) [µM] | IC50 (SF-268 cells [15]) [µM] | IC50 (Du145 cells [16]) [µM] | IC50 [17] [µM] | IC50 (human cancer cell lines) [µM] | IC50 (NCI/ADR RES cells [18]) [µM] | other results |
| --- | --- | --- | --- | --- | --- | --- | --- | --- | --- | --- | --- | --- | --- | --- | --- | --- | --- | --- | --- | --- | --- |
| CS(=O)(=O)CCCCN=C=S [Compound 14, 1-isothiocyanato-4-(methylsulfonyl)butane] | 8.36 | 6.99 | 4.16 | 4.84 | 6.87 | 4.48 | 9.99 | 10 | 2.28 | 3.29 | 3.46 | 4 | 7.9 | 39.1 | 4.72 | 3.7 | 5.24 | 5.32 | 5.32 | 11.1 | – |
| S=C=NCCc1ccccc1 [Compound 38, 1-(2-isothiocyanatoethyl)benzene] | 23.7 | 13.5 | 12.7 | 16.7 | 13.7 | 11.1 | 10.5 | 12.1 | 13.1 | 10.3 | 46.2 | 10.9 | < 12.5 | 33.2 | 8.66 | 7.2 | 43.1 | 17.7 | 11.5 | 12.1 | – |
| S=C=NCc1cccc2ccccc12 [Compound 30, 1-(isothiocyanatomethyl)naphthalene] | < 3.13 | 4.89 | > 20 | 3.22 | 13.3 | 19.8 | 8.93 | 12.6 | 2.27 | 4.55 | 15.2 | 16.8 | 13.8 | > 50 | 2 | 3.39 | 8.31 | 21.4 | 9.16 | 9.71 | – |
| S=C=NCc1cccc(-c2ccccc2)c1 [Compound 34, 1-(isothiocyanatomethyl)-3-phenylbenzene] | 2.52 | 3.83 | 2.93 | 4.92 | 5.29 | 2.11 | 1.47 | 3.53 | 2.13 | 3.33 | 6.9 | 3.87 | 5.95 | 28.8 | 3.95 | 3.39 | 7.11 | 3.06 | 3.27 | 2.23 | selectivity for cancer cells over NmuMG cells (human cancer cell lines; IC50 in NmuMG versus average IC50 in cancer cell lines): non-selective; further fold increase in potency from multiple phenyl rings (human cancer cell lines; average IC50 compared with single-ring 23 and 38): ~2 fold |
| CC(C)(C)CN=C=S [Compound 16, 1-isothiocyanato-2,2-dimethylpropane] | > 50 | > 50 | > 50 | > 50 | 30.3 | > 50 | > 50 | > 50 | > 50 | 35 | > 50 | > 50 | 49.4 | > 50 | > 50 | > 50 | > 50 | 26.8 | > 50 | > 50 | – |
